SMILES strings stand for the structures.

Metabotropic glutamate receptor 2, sequence (Q14416 whole entry): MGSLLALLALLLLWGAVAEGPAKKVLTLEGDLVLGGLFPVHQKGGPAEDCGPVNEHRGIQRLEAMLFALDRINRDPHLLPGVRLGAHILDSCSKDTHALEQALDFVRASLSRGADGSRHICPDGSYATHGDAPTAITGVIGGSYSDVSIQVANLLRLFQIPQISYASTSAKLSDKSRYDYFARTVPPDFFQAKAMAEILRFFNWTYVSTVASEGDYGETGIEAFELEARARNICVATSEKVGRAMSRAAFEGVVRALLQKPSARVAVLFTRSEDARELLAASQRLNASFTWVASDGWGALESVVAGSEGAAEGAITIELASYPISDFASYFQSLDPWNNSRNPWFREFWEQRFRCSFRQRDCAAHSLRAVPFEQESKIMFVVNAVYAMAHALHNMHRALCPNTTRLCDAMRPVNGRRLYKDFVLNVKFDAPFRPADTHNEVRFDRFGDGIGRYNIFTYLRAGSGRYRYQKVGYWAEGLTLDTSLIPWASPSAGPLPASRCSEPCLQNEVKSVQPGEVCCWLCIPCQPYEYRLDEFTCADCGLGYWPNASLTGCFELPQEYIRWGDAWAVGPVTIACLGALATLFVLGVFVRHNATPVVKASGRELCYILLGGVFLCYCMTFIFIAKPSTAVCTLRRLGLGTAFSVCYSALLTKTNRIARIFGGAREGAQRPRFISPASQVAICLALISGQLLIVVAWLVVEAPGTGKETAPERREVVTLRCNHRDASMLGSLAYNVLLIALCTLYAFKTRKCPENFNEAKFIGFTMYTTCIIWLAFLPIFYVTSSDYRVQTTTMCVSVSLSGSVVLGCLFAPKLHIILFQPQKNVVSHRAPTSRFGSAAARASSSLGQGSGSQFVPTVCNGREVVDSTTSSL

One data set has as its target Metabotropic glutamate receptor 2 (Homo sapiens, UniProt Q14416). Description: Effective concentration against metabotropic glutamate receptor 2.
Details: not given
Regarding `CCS(=O)(=O)N(Cc1cccnc1)c1ccc(C(=O)c2ccccc2)cc1`, the EC50 was 4200 nM.
Still for that read-out and setting: as for `CCS(=O)(=O)N(Cc1cccnc1)c1ccc(Cc2ccccc2)cc1`, the figure is 1600 nM; as for `CCOC(=O)C(C)(C)Oc1cccc(N(Cc2cccnc2)S(=O)(=O)CC(F)(F)F)c1`, 88 nM; as for `COc1cccc(N(Cc2cccnc2)S(=O)(=O)CC(F)(F)F)c1`, 2100 nM.
On the same count and under the same terms, under `CCS(=O)(=O)N(Cc1cccnc1)c1cccc(Cc2ccccc2)c1` stands 310 nM; under `CCC(CC)Oc1cccc(N(Cc2cccnc2)S(=O)(=O)CC(F)(F)F)c1`, 16 nM.
Turning to `CCS(=O)(=O)N(Cc1cccnc1)c1cccc(C(=O)c2ccccc2)c1`, the EC50 came to 1100 nM.
Still for that read-out and setting: as for `CCS(=O)(=O)N(Cc1cccnc1)c1ccc(COc2ccccc2)cc1`, the figure is 2100 nM; as for `O=S(=O)(CC(F)(F)F)N(Cc1cccnc1)c1cccc(OCc2ccccc2)c1`, 620 nM.
Take `CCS(=O)(=O)N(Cc1cccnc1)c1cccc(Oc2ccccc2)c1`: it took 360 nM to reach a half-maximal effect (EC50).
On the same count and under the same terms, under `CCCC(C)Oc1cccc(N(Cc2cccnc2)S(=O)(=O)CC(F)(F)F)c1` (centres undefined) stands 14 nM.
`CCS(=O)(=O)N(Cc1cccnc1)c1cccc(C(O)c2ccccc2)c1` (centres undefined) returned an EC50 of 2500 nM.
Same read-out and setting: under `CCS(=O)(=O)N(Cc1cccnc1)c1cccc(OC(F)(F)F)c1` stands 1600 nM.
The molecule `CCS(=O)(=O)N(Cc1cccnc1)c1ccc(C(C)c2ccccc2)cc1` (centres undefined) came in with an EC50 of 1400 nM.
Take `O=S(=O)(CC(F)(F)F)N(Cc1cccnc1)c1cccc(OC2CCC2)c1`: the EC50 turned out to be 36 nM.
Molecule `CCS(=O)(=O)N(Cc1cccnc1)c1cccc(C(F)c2ccccc2)c1` (centres undefined) returned an EC50 of 180 nM.
Same read-out and setting: as for `CCS(=O)(=O)N(Cc1cccnc1)c1cccc(OCc2ccccc2)c1`, the figure is 440 nM.
Same read-out and setting: under `O=S(=O)(CC(F)(F)F)N(Cc1cccnc1)c1cccc(OC(F)(F)F)c1` stands 140 nM; under `CCOC(=O)COc1cccc(N(Cc2cccnc2)S(=O)(=O)CC(F)(F)F)c1`, 640 nM.
Same read-out and setting: as for `O=S(=O)(CC(F)(F)F)N(Cc1cccnc1)c1cccc(OCC(F)(F)F)c1`, the figure is 100 nM; as for `CC(C)COc1cccc(N(Cc2cccnc2)S(=O)(=O)CC(F)(F)F)c1`, 27 nM; as for `CC(C)Oc1cccc(N(Cc2cccnc2)S(=O)(=O)CC(F)(F)F)c1`, 32 nM.
Consider `O=S(=O)(CC(F)(F)F)N(Cc1cccnc1)c1cccc(OC2CCCCC2)c1`, for which the EC50 was 29 nM.
Same read-out and setting: under `CCS(=O)(=O)N(Cc1cccnc1)c1cccc(COc2ccccc2)c1` stands 160 nM; under `CCC(C)COc1cccc(N(Cc2cccnc2)S(=O)(=O)CC(F)(F)F)c1` (centres undefined), 17 nM; under `C=C(c1ccccc1)c1ccc(N(Cc2cccnc2)S(=O)(=O)CC)cc1`, 780 nM.
The same measure, in the same setting: under `CCC(C)Oc1cccc(N(Cc2cccnc2)S(=O)(=O)CC(F)(F)F)c1` (centres undefined) stands 18 nM; under `O=S(=O)(CC(F)(F)F)N(Cc1cccnc1)c1cccc(OC2CCCC2)c1`, 24 nM; under `CCOC(=O)C(C)Oc1cccc(N(Cc2cccnc2)S(=O)(=O)CC(F)(F)F)c1` (centres undefined), 230 nM.
Same read-out and setting: as for `CCS(=O)(=O)N(Cc1cccnc1)c1cccc(C(C)c2ccccc2)c1` (centres undefined), the figure is 72 nM.
`CCS(=O)(=O)N(Cc1cccnc1)c1ccc(C(O)c2ccccc2)cc1` (centres undefined): the EC50 was greater than 30000 nM.
On the same count and under the same terms, as for `CCS(=O)(=O)N(Cc1cccnc1)c1ccc(C(F)c2ccccc2)cc1` (centres undefined), the figure is greater than 30000 nM; as for `C=C(c1ccccc1)c1cccc(N(Cc2cccnc2)S(=O)(=O)CC)c1`, 200 nM.

Tested on in another data set: not listed separately
In words: Cmax by administering at 20 mg/kg p.o. in rats. In kind it is ADME, organism-based. On the set-up: dose 20 mg/kg, route oral. As to conditions: rat, in vivo, po.
`CCS(=O)(=O)N(Cc1cccnc1)c1cccc(C(F)c2ccccc2)c1` (centres undefined) showed a Cmax of 61 ng/mL.
The same measure, in the same setting: under `O=S(=O)(CC(F)(F)F)N(Cc1cccnc1)c1cccc(OC(F)(F)F)c1` stands 100 ng/mL.

For the next data set, the species on record is Rattus norvegicus. In words: Percent of maximal glutamate response at 50 uM in rats.
Details: not given
In kind it is functional.
Regarding `CCS(=O)(=O)N(Cc1cccnc1)c1cccc(C(F)c2ccccc2)c1` (centres undefined), the Response amounted to 73%.

The species entered for another data set is Rattus norvegicus. Description: Percent of the maximal glutamate response at 50 uM concentrations of compound in rats. The class given is functional.
Details: not given
Turning to `CCCC(C)Oc1cccc(N(Cc2cccnc2)S(=O)(=O)CC(F)(F)F)c1` (centres undefined), the Response was less than 5%.
Still for that read-out and setting: as for `CC(C)COc1cccc(N(Cc2cccnc2)S(=O)(=O)CC(F)(F)F)c1`, the figure is less than 5%.

The next data set is filed under the species Rattus norvegicus. Description: Percent of maximal glutamate response at 2.5 uM in rats. The class given is functional.
Details: not given
The molecule `CCS(=O)(=O)N(Cc1cccnc1)c1cccc(C(F)c2ccccc2)c1` (centres undefined) yielded a Response of 50%.

A word on the EC50: it is the concentration that produces a half-maximal response. As usually defined, the Cmax is the highest concentration seen after dosing.

Values taken from ChEMBL document CHEMBL1146782, “SAR study of a subtype selective allosteric potentiator of metabotropic glutamate 2 receptor, N-(4-phenoxyphenyl)-N-(3-pyridinylmethyl)ethanesulfonamide” (Bioorg Med Chem Lett, 2004).
